Entries after “also recorded” stand apart in the source; their conditions may differ. Ends that are not written are not given here.

The test system of data set [1] is primary lung fibroblasts. Particulars: for number of viable cells (Calcein-AM uptake): 1 to 1000 ng/mL, 24 hours. As to the method:
The effect of IP-10-related peptides on viability of lung fibroblasts was evaluated. Primary lung fibroblasts from healthy patients (SC31 and SC45) were either left untreated or treated with various concentrations of peptides (1 to 1000 ng/mL) for 24 hours. Treatment for 30 minutes with 70% ethanol in water was used as a positive control for dead cells. The Molecular Probes LIVE/DEAD Viability/Cytotoxicity Kit for mammalian cells (Invitrogen) was used to stain live cells. Following the manufacturer's protocol, at the end of treatment, cells in 96-well plates were washed with PBS, and then incubated in 2 μM Calcein-AM solution for 45 minutes at room temperature. Following incubation, the cells were imaged under a fluorescence microscope using the GFP channel. For quantification, ImageJ was used to count the number of live cells per field.

Data set [2] relates to cardiomyocytes. The experiment in a line: Motility (scratch) assay, cardiomyocytes. The data set is classed as cell-based, mouse. Particulars: TGFβ1 10 ng/mL + agent 10 μM, 24 h; FIG. 1A. On the procedure:
(§1) Primary cardiac fibroblasts and cardiomyocytes were isolated from both wild-type and CXCR3−/− neonatal mouse pups. After washing in PBS, hearts were stirred for 5 minutes in 0.5% trypsin at 37° C. to dissociate cells into solution. The suspended cells were then transferred to DMEM containing 20% fetal bovine serum (FBS) on ice to inactivate trypsin activity, and dissociation was repeated twice more with fresh trypsin solution. Cells were then washed and plated into 6-well plates at 1.25×10^6 cells/well, suspended in cardiac cell media (DMEM containing 7.5% dialyzed FBS and 1% antibiotic/antimitotic solution). After three hours, adhered fibroblasts were separated from the unattached cardiomyocytes through resuspension of the cells, and cardiomyocytes were plated separately at a density of 5×10^5 cells/ml.
(§2) To determine the effect of IP-10p on TGFβ1-induced cell migration, motility assays were performed on cardiac fibroblasts, cardiomyocytes, and co-cultures (2:1 ratio of cardiomyocytes to fibroblasts). Cells were plated at 2.5×10^5 cells/well in a 12-well uncoated plate in depleted media (DMEM containing 0.5% FBS) 24 hours before beginning the experiment. A pipette tip was used to create a scratch in the monolayer and the plate was washed twice with PBS to remove scraped cells. Cells were then treated with TGFβ1 (R&D Systems, Minneapolis, MN) alone (10 ng/mL) to stimulate fibrosis, CXCL10 alone (10 μM), IP-10p alone (10 μM), TGFβ1+CXCL10, TGFβ1+IP-10p, or left untreated. Images were taken immediately after scratching and 24 hours later, and Adobe Photoshop was used to quantify wound motility as distance between wound edges relative to the initial scratch width.

The subject of data set [3] is cardiac fibroblasts. Kind of data set: Motility (scratch) assay, cardiac fibroblasts. The class given is cell-based, mouse. As to the method: as §1, §2
Data set [4] deals with CM/CF co-cultures. Kind of data set: Histochemical and fluorescence analyses of ECM in CM/CF co-cultures. The class given is cell-based, mouse. An excerpt: (§3) CM and CF were isolated from wild type and CXCR3-null FVB neonatal mice. Following isolation, CM, CF, or CM/CF in both direct and indirect co-cultures were challenged with CM and CF activating growth factor transforming growth factor […]. Antagonist peptide treatments, CRF-5-3 and CRF-5-5, were given alone or in combination with CXCL10. To determine whether CRF-5-3 and CRF-5-5 block CXCL10 binding to its receptor, the ability of biotin-tagged CXCL10 and/or FITC-tagged CRF-5-5 to compete for binding to CM and CF was analyzed using flow cytometry. In vitro cellular function assays were assessed for migration, apoptosis, and extracellular matrix (ECM) secretion. Real time quantitative polymerase chain reaction was employed in order to determine modified relative gene expression of both CM and FB, following treatment.

The test system of data set [5] is cardiomyocytes (CM). Kind of data set: Real time quantitative PCR relative gene expression, cardiomyocytes. The data set is classed as cell-based, mouse. Conditions: peptide with CXCL10.
Source text: as §3

In data set [6] the test system is cardiac fibroblasts. Kind of data set: P38 MAPK-dependent extracellular matrix production in cardiac fibroblasts. The data set is classed as cell-based, mouse.
Source text: as §3

Data set [7] has as its system cardiac fibroblasts (CF). Kind of data set: Real time quantitative PCR relative gene expression, cardiac fibroblasts. The class given is cell-based, mouse. Particulars: peptide with CXCL10.
Source text: as §3

Data set [8] concerns cardiac fibroblasts (CF) and cardiomyocytes (CM). The experiment in a line: In vitro cellular function assays on CM and CF (P38 signaling, motility, ECM). The data set is classed as cell-based, mouse.
Source text: as §3

The subject of data set [9] is primary lung fibroblasts. The experiment in a line: Scratch assay, TGF-β-induced fibroblast migration. The data set is classed as cell-based, human. Particulars: TGF-β 10 ng/mL, 24 hours. On the procedure:
Next, studies were performed to evaluate the effect of IP-10 related peptides on migration of lung fibroblasts in response to TGF-β. Primary lung fibroblasts from healthy patients were plated in 24-well plates in complete medium and incubated overnight. The next day, the medium was changed to quiescent medium and cells were incubated in this medium for 24 hours. The following day, a plus-shaped scratch was made across the cells using a 1000 μL pipette tip. An image was taken at a location that could be identified later. After imaging, cells were either left untreated, treated with 100 ng/mL peptide alone, treated with 10 ng/mL TGF-β, or treated with peptide and TGF-β and incubated for 24 hours. At the end of the incubation time, the cells were imaged in the same location as in the original image to visualize closure of the scratch. The denuded area was calculated using ImageJ software and the percent wound closure was calculated for each treatment group.

For data set [10], the system named is co-cultures of cardiomyocytes and cardiac fibroblasts. Kind of data set: Fibrotic extracellular matrix (ECM) secretion, co-cultures. Particulars: agent alone vs unstimulated cultures, 48 h. The class given is cell-based, mouse. On the procedure: as §1
Cardiac fibrosis is marked by overproduction of ECM proteins following injury. To observe the effect of IP-10p on secretion of these molecules, co-cultures of cardiomyocytes and cardiac fibroblasts were used to account for […] signaling taking place between the two dominant cell types in the heart. Fibroblasts and myocytes were plated at a 2:1 ratio using the same culture conditions and treatment groups described above for fibroblast activation. Following a 48-hour incubation with their respective treatments, cells were fixed, permeabilized and stained. Antibodies for collagen α1 type 1 (1:250, Santa Cruz Biotechnology SC8784, Dallas, TX), fibronectin (1:250, Abcam ab2413), and tenascin C (1:200, Abcam ab6346), followed by their appropriate secondary antibodies (Abcam ab150132, ab150077, and 150153, respectively), were used to determine fibrotic ECM secretion from the co-cultures. Expression of these molecules is expressed at CTCF and was quantified using MetaMorph® (Molecular Devices, Sunnyvale, CA).

Data set [11] has as its system primary lung fibroblasts. Kind of data set: qPCR of pro-fibrotic mRNAs in primary lung fibroblasts. The data set is classed as cell-based, human. Particulars: TGF-β 10 ng/mL, 24 h. On the procedure: The next day, the medium was changed to quiescent medium and the cells were incubated in this medium for 24 hours. The following day, cells were either left untreated, treated with 10 ng/mL or 100 ng/mL of IP-10-1 (SEQ ID NO: 2), IP-10-2 (SEQ ID NO: 3) or IP-10-3 (SEQ ID NO: 4) peptide, treated with 10 ng/mL TGF-β, or treated with peptide and TGF-β for 24 hours. Total RNA was extracted using the Qiagen miRNeasy kit (Qiagen) and treated with DNase1, according to the manufacturer's instructions. RNA was then quantified and converted to cDNA using the Clontech RNA to cDNA EcoDry Double Primed Premix (Takara). qPCR was performed using PowerUp Sybr Green (Invitrogen) on an Applied Biosystems Quant Studio 3 instrument. Primers were from IDT and were designed using IDT Primer Quest and NCBI Primer Blast tools. The delta-delta Ct method was used to determine relative expression. GAPDH was used as a housekeeping gene.

The test system of data set [12] is cardiac fibroblasts. The experiment in a line: Fibroblast activation assay (αSMA), cardiac fibroblasts. Conditions: TGFβ1 10 ng/mL vs untreated control. The data set is classed as cell-based, mouse. On the procedure: as §1
Fibroblast activation to myofibroblasts is marked by αSMA expression within the cytoskeleton and serves as a marker to induce fibrosis. Cardiac fibroblasts were plated at 2,000 cells/well in an 8-well chamber slide and allowed to adhere overnight. After 24 hours, cells were washed and treated with: TGFβ1 alone (10 ng/ml), CXCL10 alone (10 μM), IP-10p alone (10 μM), TGFβ1+CXCL10, TGFβ1+IP-10p, or left untreated. After 24 hours, cells were fixed in ice cold methanol for 10 minutes and stained for αSMA (1:200, Abcam ab5694, Cambridge, UK) at 4° C. overnight, followed by a goat-anti-rabbit Alexa Fluor 594-conjugated secondary antibody (Abcam ab150080). After counterstaining with DAPI, cells were imaged, and fibroblast activation was measured using corrected total cell fluorescence (CTCF). These measurements were also performed in co-cultures of cardiomyocytes and cardiac fibroblasts (2:1 ratio)

In the case of `CCO` [ethanol, reference compound], the “Calcein-AM positive cells, positive control for dead cells” value in data set [1] (70% ethanol in water, 30 minutes) is listed as “elimination of the detected Calcein-AM positive cells”.
As for C-X-C chemokine ligand 10 [CXCL10], the “cardiomyocyte motility in the presence of TGFβ1” value in data set [2] is listed as “completely inhibited; also recorded: inhibit migration”. The “motility of cardiac fibroblasts, agent alone” value in data set [3] (10 μM alone, 24 h, compared to control) is “not altered”. For the same compound, the “migration following TGF-β induction in cardiac fibroblasts” value in [3] (FIG. 1B) is on record as “inhibit migration”. In addition, the “reduction of motility of TGFβ1-treated fibroblasts” value in data set [3] (TGFβ1 10 ng/mL + agent 10 μM, 24 h) came to 30%.
For “FAKAIKNFAKAVAKFA [IP-10-3, FAKAIKNFAKAVAKFA]”, the “number of viable cells (Calcein-AM uptake)” value (“number … (Calcein-AM uptake)” below) in [1] was “no impact”.
Consider FRFLFRGGRFLFRF [CRF-5-3], for which the “ECM alterations following TGF-β and/or CXCL10 treatment” value in [4] is recorded as “CRF-5-3-mediated alterations”. The “CXCL10-induced gene expression on CM” value in data set [5] was “altered”. Besides, in data set [6], the “CXCL10 inhibition of TGF-β-induced P38 MAPK-dependent extracellular matrix production” value is on record as “altered”. Further, the “CXCL10-induced gene expression on FB” value in data set [7] is “altered”. In addition, in data set [8], the “CXCL10-suppressed growth factor-induced ECM production” value is “promote the disinhibition”, the “CXCL10-suppressed growth factor-induced intracellular P38 signaling” value is listed as “promote the disinhibition” and the “CXCL10-suppressed growth factor-induced motility” value is on record as “promote the disinhibition”.
In the case of FRWLWRGGRWLWRF [CRF-5-5], in data set [5], the “CXCL10-induced gene expression on CM” value is reported as “altered”. In addition, the “CXCL10 inhibition of TGF-β-induced P38 MAPK-dependent extracellular matrix production” value in [6] is “altered”. Further, the “CXCL10-induced gene expression on FB” value in data set [7] is recorded as “altered”. In addition, in data set [8], the “CXCL10-suppressed growth factor-induced ECM production” value is “promote the disinhibition”, the “CXCL10-suppressed growth factor-induced intracellular P38 signaling” value is reported as “promote the disinhibition”, the “CXCL10-suppressed growth factor-induced motility” value is reported as “promote the disinhibition” and the “CXCL10 inhibition of TGF-β-induced matrix production” value is recorded as “interfered”.
Take PESKVIKNLLKVASKERSKRSP [IP-10-1]: the “number … (Calcein-AM uptake)” value in data set [1] is “no impact”.
Turning to PESRVIKNLLRVVSKEKSRRSP [IP-10-2], the “number … (Calcein-AM uptake)” value in data set [1] is given as “no impact”.
“transforming growth factor beta 1 [TGFβ1]”: the “fibroblast migration (wound closure), TGF-β alone” value in data set [9] was “significantly increased fibroblast migration; also recorded: significantly increased rate of wound closure”. Moreover, in data set [3] (TGFβ1 10 ng/mL alone, 24 h), the “increase of cardiac fibroblast motility relative to untreated cells” value was “over 3 fold”. Further, in data set [10], the “collagen secretion, agent alone” value was “significant upregulation” and the “fibronectin secretion, agent alone” value was “significant upregulation”. Moreover, the “expression of pro-fibrotic mRNAs, TGF-β alone” value in [11] is listed as “induced expression; also recorded: caused an induction”. In [12], the “αSMA expression, TGFβ1 alone” value was “drastically increased αSMA expression”.
